In patent publication US20110183978A1, “Phenylpyri(mi)dinylazoles” (Bayer CropScience AG, priority 2009, published 2011) one finds pest or weed control and chromatographic logP data, which are given here for 22 molecules.

For one data set, the system named is Alternaria solani. Nature of the data set: Example M: in vivo test on Alternaria solani (leaf blotch disease/tomato/protective). As to conditions: 168 h, tomato, protective, 500 ppm active substance, assessed 7 days after inoculation, read-out: % Wirkungsgrad (activity level). How it is done:
Solvent: 49 parts by weight N,N-dimethylformamide Emulsifier: 1 part by weight alkylaryl polyglycol ethers For the preparation of a suitable active substance preparation, 1 part by weight of active substance is mixed with the stated quantities of solvent and emulsifier and the concentrate is diluted to the desired concentration with water. For the testing for protective activity, young tomato plants are sprayed with the active substance preparation at the stated application dosage. […] 7 days after the inoculation, the assessment takes place.

Setting [1] is: LogPA (logP of the stated pure compound or, in a mixture, of the main isomer, 1-substituted 3-aryl-1H-pyrazole).

By chromatographic logP is commonly meant a lipophilicity value derived from retention on a column. With `CC(C)=CCn1ncc(-c2ccncc2)c1-c1ccc(F)cc1` [Compound 25], in the data set on Alternaria solani, the pest or weed control at 500 ppm is 90%. Further, the chromatographic logP in “physchem” (setting [1]) was found to be 2.68.

As for `CC(C1CC1)n1cc(-c2ccncc2)c(-c2ccc(F)cc2)n1` (centres unmarked) [Compound 305], the pest or weed control at 500 ppm in the data set on Alternaria solani was found to be 100%. Also, in the data set “physchem” (LogPA), the chromatographic logP was found to be 1.59.

`Cc1cc(C(=O)Cn2cc(-c3ccncc3)c(-c3ccc(F)cc3)n2)nn1C` [Compound 144]: the pest or weed control at 500 ppm in the data set with Alternaria solani was determined as 94%. Moreover, in “physchem” (setting [1]), the chromatographic logP is 1.31.

As for `C#CCNc1nccc(-c2c[nH]nc2-c2ccc(F)cc2)n1` [Compound 173], the pest or weed control at 500 ppm with Alternaria solani was determined as 94%. The molecule also displayed a chromatographic logP in “physchem” (LogPA) of 1.44.

Turning to `CC(C)n1cc(-c2ncnc3[nH]cnc23)c(-c2ccc(F)cc2)n1` [Compound 282], the pest or weed control at 500 ppm with Alternaria solani was determined as 70%. Further, the chromatographic logP in the data set “physchem” (LogPA) worked out at 1.79.

With `CC(C)n1cc(-c2ccnc(NC(C)C(F)(F)F)c2)c(-c2ccc(F)cc2)n1` (centres unmarked) [Compound 318], the pest or weed control at 500 ppm with Alternaria solani is 80%. The molecule also came in with a chromatographic logP in “physchem” (LogPA) of 2.26.

`CC(C)Nc1nccc(-c2cn(CCC#N)nc2-c2ccc(F)cc2)n1` [Compound 362]: the pest or weed control at 500 ppm with Alternaria solani is 80%. This molecule gave a chromatographic logP in the data set “physchem” (LogPA) of 1.74.

In the case of `CC(C)Nc1nccc(-c2cn(C)nc2-c2ccc(F)cc2)n1` [Compound 361], in the data set on Alternaria solani, the pest or weed control at 500 ppm stood at 70%. This molecule returned a chromatographic logP in the data set “physchem” (LogPA) of 1.65.

Consider `C#CCn1cc(-c2ccnc(NC(C)C)n2)c(-c2ccc(F)cc2)n1` [Compound 363], for which the pest or weed control at 500 ppm in the data set on Alternaria solani came to 90%. For the same molecule, in the data set “physchem” (LogPA), the chromatographic logP amounted to 1.99.

For `COCC(=O)Nc1cc(-c2cn(C3CC3)nc2-c2ccc(F)cc2)ccn1` [Compound 321], in the data set with Alternaria solani, the pest or weed control at 500 ppm was found to be 70%. The molecule also returned a chromatographic logP in “physchem” (LogPA) of 2.37.

As for `CCNC(=O)Nc1cc(-c2cn(CC(F)F)nc2-c2ccc(F)cc2)ccn1` [Compound 231], the pest or weed control at 500 ppm with Alternaria solani was 95%. In “physchem” (LogPA), this molecule registered a chromatographic logP of 1.91.

`CCn1cc(-c2ccnc(NC(C)C)n2)c(-c2ccc(F)cc2)n1` [Compound 370]: the pest or weed control at 500 ppm in the data set on Alternaria solani stood at 95%. Further, the chromatographic logP in the data set “physchem” (LogPA) stood at 1.91.

On to `CC(Nc1cc(-c2cn(C)nc2-c2ccc(F)cc2)ccn1)C(F)(F)F` (centres unmarked) [Compound 319], for which the pest or weed control at 500 ppm in the data set with Alternaria solani was determined as 90%. The molecule further returned a chromatographic logP in “physchem” (LogPA) of 1.73.

Regarding `CCOC(=O)CC(CC)CC(=O)Nc1cc(-c2cn(CC)nc2-c2ccc(F)cc2)ccn1` (centres unmarked) [Compound 332], the pest or weed control at 500 ppm with Alternaria solani worked out at 90%. This molecule also came in with a chromatographic logP in “physchem” (LogPA) of 2.9.

As for `CCC(=O)Nc1nccc(-c2cn(CC(C)C)nc2-c2ccc(F)cc2)n1` [Compound 365], the pest or weed control at 500 ppm in the data set on Alternaria solani turned out to be 80%. In the data set “physchem” (LogPA), the chromatographic logP is 2.7.

Take `Fc1ccc(-c2nn(CC3OCCO3)cc2-c2ccncc2)cc1` [Compound 275]: the pest or weed control at 500 ppm in the data set with Alternaria solani came out at 90%. The molecule also displayed a chromatographic logP in the data set “physchem” (LogPA) of 1.02.

Turning to `CC(c1ccccc1F)n1cc(-c2ccnc(NC(=O)C3CC3)c2)c(-c2ccc(F)cc2)n1` (centres unmarked) [Compound 259], the pest or weed control at 500 ppm with Alternaria solani is 90%. The molecule further yielded a chromatographic logP in “physchem” (LogPA) of 3.13.

In the case of `CCOC(=O)Cn1cc(-c2ccncc2)c(-c2ccc(F)cc2)n1` [Compound 170], the pest or weed control at 500 ppm in the data set with Alternaria solani worked out at 78%. This molecule gave a chromatographic logP in “physchem” (LogPA) of 1.31.

As for `CC(Nc1cc(-c2cn(CC3CC3)nc2-c2ccc(F)cc2)ccn1)C(F)(F)F` (centres unmarked) [Compound 317], the pest or weed control at 500 ppm in the data set on Alternaria solani was 70%. In addition, in “physchem” (LogPA), the chromatographic logP amounted to 2.33.

Regarding `O=C(Nc1cc(-c2cn(CC(F)F)nc2-c2ccc(F)cc2)ccn1)c1ccsc1` [Compound 235], the pest or weed control at 500 ppm with Alternaria solani was 94%. The molecule also registered a chromatographic logP in “physchem” (LogPA) of 2.69.

On to `C[C@H](O)C(=O)Nc1cc(-c2cn(C)nc2-c2ccc(F)cc2)ccn1` [Compound 353], for which the pest or weed control at 500 ppm in the data set on Alternaria solani was found to be 80%. For the same molecule, the chromatographic logP in “physchem” (LogPA) came out at 1.57.

Consider `O=C(Nc1cc(-c2cn(OC3CCCC3)nc2-c2ccc(F)cc2)ccn1)C1CC1` [Compound 269], for which the pest or weed control at 500 ppm in the data set on Alternaria solani is 89%. The molecule further came in with a chromatographic logP in “physchem” (LogPA) of 3.35.
